{"source": "patent US10512691B2", "about": "“Systems and methods for targeted imaging and ablation of cardiac cells” (THE REGENTS OF THE UNIVERSITY OF MICHIGAN, priority 2012, dated 2019)", "key": {"cardiac tissue [1]": {"test_system": "cardiac tissue", "settings": "contemplated, citing Zahid et al.; cited from earlier work"}, "cardiac tissue [2]": {"test_system": "cardiac tissue", "assay": "CTP transduction of cardiac tissue after peripheral intravenous injection", "format": "in vivo", "settings": "15 minutes post-peripheral intravenous injection in mice", "text": "In some embodiments, nanoparticles comprise cardiac targeting moieties. In some embodiments, targeting moieties target myocytes. In some embodiments, the cardiac targeting moiety is cardiac targeting peptide (CTP) (Zahid et al., PloS one 2010; 5:e12252, herein incorporated by reference in its entirety). This peptide has the sequence […] (SEQ ID NO:1). In some embodiments, variants (e.g., sequence variants) of cardiac targeting peptide that retain the ability to specifically bind to myocytes are utilized. […] Thus, CTP is specific to the heart and cell type specific to myocytes. CTP also works in rat, and sheep and human (Zahid, et. al, supra)."}, "[3]": {"settings": "known, when injected in blood; cited from earlier work"}, "[4]": {"assay": "In vivo blood stability of photosensitizer", "settings": "action of blood reducing enzymes", "text": "In vivo testing as described above was repeated with an improved CTP-Ce6-8-arm-PEG platform as described above."}}, "note": "Like-named read-outs stand apart in the source and are kept apart here. Peptide text beside a SMILES is read from it.", "data": [{"molecule": "CC(C)C[C@H](NC(=O)[C@H](Cc1c[nH]cn1)NC(=O)[C@H](Cc1c[nH]c2ccccc12)NC(=O)[C@@H]1CCCN1C(=O)[C@H](C)N)C(=O)N[C@@H](CO)C(=O)N[C@@H](CO)C(=O)N[C@@H](CCC(N)=O)C(=O)N[C@@H](Cc1ccc(O)cc1)C(=O)N[C@@H](CO)C(=O)N[C@@H](CCCNC(=N)N)C(=O)N[C@H](C(=O)O)[C@@H](C)O", "note": "[CTP] (H-APWHLSSQYSRT-OH; N-terminus and C-terminus assumed)", "values": [{"measurement": "time for CTP to reach the heart", "setting": "cardiac tissue [1]", "value": "approximately 15 minutes"}, {"measurement": "transduction of cardiac tissue", "setting": "cardiac tissue [2]", "value": "efficiently and specifically transduce cardiac tissue"}, {"measurement": "uptake in other organs", "setting": "cardiac tissue [2]", "value": "No other organ showed uptake except kidney glomeruli, limited to the cortex, and rare lung capillaries"}]}, {"molecule": "chlorin e6 [Ce6]", "values": [{"measurement": "stability in blood in vivo", "setting": "[3]", "value": "remain stable when injected in blood"}]}, {"molecule": "CN(C)c1ccc2nc3ccc(=[N+](C)C)cc-3sc2c1", "note": "[methylene blue]", "values": [{"measurement": "stability in blood in vivo", "setting": "[4]", "value": "decreased in vivo"}]}]}
